Molecular target: T1, GST-tagged ROR gamma ligand binding domain (LBD) (Homo sapiens, UniProt P51449)
T1 construct: purchased Invitrogen
T1 sequence (P51449 269-508 limits assumed): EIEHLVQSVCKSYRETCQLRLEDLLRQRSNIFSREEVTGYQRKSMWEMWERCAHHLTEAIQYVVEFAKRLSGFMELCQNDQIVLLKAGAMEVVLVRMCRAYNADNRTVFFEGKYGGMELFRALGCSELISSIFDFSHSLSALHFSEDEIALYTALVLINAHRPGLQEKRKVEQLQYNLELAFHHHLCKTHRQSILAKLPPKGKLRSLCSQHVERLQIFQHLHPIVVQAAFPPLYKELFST
Test: TR-FRET assay for ROR gamma (LanthaScreen co-activator peptide recruitment)
Type: biochemical
Settings: for inhibition at 1 µM: compound concentration 1 μM; for inhibition at 1 µM / inhibition at 10 µM: TR-FRET ratio 520/495, percent of control; for inhibition at 10 µM: compound concentration 10 μM; for IC50: from dose response curve, nonlinear regression, read-out: IC50 range
Source text: The compounds described herein were screened for ROR gamma modulator activity using the TR-FRET assay (LanthaScreen™ available from Invitrogen of Carlsbad, Calif.) as described in JBC 2011, 286, 26: 22707-10; and Drug Metabolism and Disposition 2009, 37, 10: 2069-78.
Binding of the co-activator peptide, causes an increase in the TR-FRET signal while binding of an antagonist decreases the recruitment of the co-activator peptide, causing a decrease in the TR-FRET signal compared to control with no compound. The assay was performed using a two-step procedure, pre-incubation step with the compound followed by the detection step on addition of the anti-GST tagged terbium (Tb) and fluorescein tagged fluorophores as the acceptor.
Test compounds or reference compounds such as T0901317 (Calbiochem) were dissolved in dimethylsulfoxide (DMSO) to prepare 10.0 mM stock solutions and diluted to the desired concentration. The final concentration of DMSO in the reaction was 4% (v/v). The assay mixture was prepared by mixing 10 nM of the GST-tagged ROR gamma ligand binding domain (LBD) in the assay buffer containing 25 mM HEPES (pH 7.4), 100 mM NaCl, 5 mM DTT and 0.01% BSA with or without the desired concentration of the compound. The reaction was incubated at 22° C. for 1 hour. The pre-incubation step was terminated by addition of the detection mixture containing 300 nM Fluorescein-D22 co-activator peptide and 10 nM lantha screen Tb-anti GST antibody into the reaction mixture.
After shaking for 5 minutes the reaction was further incubated for 1 hour at room temperature and read at 4° C. on an Infinite F500 reader as per the kit instructions (Invitrogen). The inhibition of test compound was calculated based on the TR-FRET ratio of 520/495. The activity was calculated as a percent of control reaction. IC50 values were calculated from dose response curve by nonlinear regression analysis using GraphPad Prism software.

Row | SMILES | inhibition at 1 µM | inhibition at 10 µM | IC50
1 | CC(O)C(F)(F)c1ccc(CC(=O)Nc2ccc(-c3nccnc3OCC3CCCCC3)cc2)cc1 (centres unmarked) [Example 93, N-(4-(3-(Cyclohexylmethoxy)pyrazin-2-yl)phenyl)-2-(4-(1,1-difluoro-2-hydroxypropyl)phenyl)acetamide] | 86.6% | 94.1% | 0.1 to 0.5 µM
2 | CC(O)C(F)(F)c1ccc(CC(=O)Nc2ccc(-c3nccnc3O[C@H](C)c3ccccc3Cl)cc2)cc1 (stereo partly drawn) [Example 84, N-(4-(3-((R)-1-(2-Chlorophenyl)ethoxy)pyrazin-2-yl)phenyl)-2-(4-(1,1-difluoro-2-hydroxypropyl)phenyl)acetamide] | 83.8% | 81.9% | 0.05 to 0.1 µM
3 | CCC(F)(F)c1ccc(CC(=O)Nc2ccc(-c3nccnc3N3CCN(C(C)=O)CC3C)cc2)cc1 (centres unmarked) [Example 42, N-(4-(3-(4-Acetyl-2-methylpiperazin-1-yl)pyrazin-2-yl)phenyl)-2-(4-(1,1-difluoropropyl)phenyl)acetamide] | 51.9% | 76.1% | 
4 | CCC(F)(F)c1ccc(CC(=O)Nc2ccc(-c3nccnc3N(C)Cc3ccccc3)cc2)cc1 [Example 56, N-(4-(3-(Benzyl(methyl)amino)pyrazin-2-yl)phenyl)-2-(4-(1,1-difluoropropyl)phenyl)acetamide] | 73.4% | 85.8% | 0.1 to 0.5 µM
5 | CCC(F)(F)c1ccc(CC(=O)Nc2ccc(-c3nccnc3N(C)[C@@H](C)c3ccc(Cl)cc3)cc2)cc1 [Example 65, (S)-N-(4-(3-((1-(4-Chlorophenyl)ethyl)(methyl)amino)pyrazin-2-yl)phenyl)-2-(4-(1,1-difluoropropyl)phenyl)acetamide] | 76.1% | 83.2% | 0.1 to 0.5 µM
6 | CCC(F)(F)c1ccc(CC(=O)Nc2ccc(-c3nccnc3OC(C)c3ccccc3C3CC3)cc2)cc1 (centres unmarked) [Example 81, N-(4-(3-(1-(2-Cyclopropylphenyl)ethoxy)pyrazin-2-yl)phenyl)-2-(4-(1,1-difluoropropyl)phenyl)acetamide] | 83.2% | 88.3% | 0.1 to 0.5 µM
7 | CCC(F)(F)c1ccc(CC(=O)Nc2ccc(-c3nccnc3N[C@@H](C)c3ccc(Cl)cc3)cc2)cc1 [Example 63, (S)-N-(4-(3-((1-(4-Chlorophenyl)ethyl)amino)pyrazin-2-yl)phenyl)-2-(4-(1,1-difluoropropyl)phenyl)acetamide] | 86.8% | 91.2% | 0.05 to 0.1 µM
8 | CCC(F)(F)c1ccc(CC(=O)Nc2ccc(-c3nccnc3N3CCN(C4COC4)CC3)cc2)cc1 [Example 99, 2-(4-(1,1-Difluoropropyl)phenyl)-N-(4-(3-(4-(oxetan-3-yl)piperazin-1-yl)pyrazin-2-yl)phenyl)acetamide] | 79.2% | 91.9% | 0.05 to 0.1 µM
9 | CC(O)C(F)(F)c1ccc(CC(=O)Nc2ccc(-c3nccnc3OCc3ccccc3)cc2)cc1 (centres unmarked) [Example 78, N-(4-(3-(Benzyloxy)pyrazin-2-yl)phenyl)-2-(4-(1,1-difluoro-2-hydroxypropyl)phenyl)acetamide] | 89.6% | 93.9% | < 0.05 µM
10 | CCC(F)(F)c1ccc(CC(=O)Nc2ccc(-c3nccnc3-c3ccccc3Cl)cc2)cc1 [Example 5, N-(4-(3-(2-Chlorophenyl)pyrazin-2-yl)phenyl)-2-(4-(1,1-difluoropropyl)phenyl)acetamide] | 81.5% | 84.4% | < 0.05 µM
11 | CCC(F)(F)c1ccc(CC(=O)Nc2ccc(-c3nccnc3-c3ccccc3F)cc2)cc1 [Example 11, 2-(4-(1,1-Difluoropropyl)phenyl)-N-(4-(3-(2-fluorophenyl)pyrazin-2-yl)phenyl)acetamide] | 78.8% | 83.8% | < 0.05 µM
12 | CC(O)C(F)(F)c1ccc(CC(=O)Nc2ccc(-c3nccnc3-c3cccc(Cl)c3)cc2)cc1 (centres unmarked) [Example 4, N-(4-(3-(3-Chlorophenyl)pyrazin-2-yl)phenyl)-2-(4-(1,1-difluoro-2-hydroxypropyl)phenyl)acetamide] | 60.7% | 77.8% | > 0.5 µM
13 | CCC(F)(F)c1ccc(CC(=O)Nc2ccc(-c3nccnc3NC(C)c3ccccc3)cc2)cc1 (centres unmarked) [Example 58, 2-(4-(1,1-Difluoropropyl)phenyl)-N-(4-(3-((1-phenylethyl)amino)pyrazin-2-yl)phenyl)acetamide] | 80.3% | 90.7% | 0.1 to 0.5 µM
14 | CCC(F)(F)c1ccc(CC(=O)Nc2ccc(-c3nccnc3-c3ccc(F)cc3Cl)cc2)cc1 [Example 45, N-(4-(3-(2-Chloro-4-fluorophenyl)pyrazin-2-yl)phenyl)-2-(4-(1,1-difluoropropyl)phenyl)acetamide] | 81.1% | 80.8% | < 0.05 µM
15 | CCC(F)(F)c1ccc(CC(=O)Nc2ccc(-c3nccnc3O[C@@H](C)c3ccccc3Cl)cc2)cc1 [Example 85, (S)-N-(4-(3-(1-(2-Chlorophenyl)ethoxy)pyrazin-2-yl)phenyl)-2-(4-(1,1-difluoropropyl)phenyl)acetamide] | 74.8% | 79.6% | 0.1 to 0.5 µM
16 | CCC(F)(F)c1ccc(CC(=O)Nc2ccc(-c3nccnc3-c3ccncc3)cc2)cc1 [Example 17, 2-(4-(1,1-Difluoropropyl)phenyl)-N-(4-(3-(pyridin-4-yl)pyrazin-2-yl)phenyl)acetamide] | 60.5% | 74.4% | 
17 | CC(O)C(F)(F)c1ccc(CC(=O)Nc2ccc(-c3nccnc3OCc3ccccc3Cl)cc2)cc1 (centres unmarked) [Example 91, N-(4-(3-((2-Chlorobenzyl)oxy)pyrazin-2-yl)phrnyl)-2-(4-(1,1-difluoro-2-hydroxypropyl)phenyl)acetamide] | 79.3% | 82.6% | < 0.05 µM
18 | CCC(F)(F)c1ccc(CC(=O)Nc2ccc(-c3nccnc3N3CCN(C)CC3)cc2)cc1 [Example 32, 2-(4-(1,1-Difluoropropyl)phenyl)-N-(4-(3-(4-methylpiperazin-1-yl)pyrazin-2-yl)phenyl)acetamide] | 15.3% | 65.1% | 
19 | CCC(F)(F)c1ccc(CC(=O)Nc2ccc(-n3nc(C)cc3-c3ccc(F)cc3)cc2)cc1 [Example 20, 2-(4-(1,1-Difluoropropyl)phenyl)-N-(4-(5-(4-fluorophenyl)-3-methyl-1H-pyrazol-1-yl)phenyl)acetamide] | 65.5% | 78% | 
20 | CCC(F)(F)c1ccc(CC(=O)Nc2ccc(-c3nccc(=O)n3-c3ccc(F)cc3Cl)cc2)cc1 [Example 49, N-(4-(1-(2-Chloro-4-fluorophenyl)-6-oxo-1,6-dihydropyrimidin-2-yl)phenyl)-2-(4-(1,1-difluoropropyl)phenyl)acetamide] | 84% | 88.8% | < 0.05 µM
21 | CC(O)C(F)(F)c1ccc(CC(=O)Nc2ccc(-c3cnn(C(C)(C)C)c3-c3ccc(F)cc3)cc2)cc1 (centres unmarked) [Example 22, N-(4-(1-(tert-Butyl)-5-(4-fluorophenyl)-1H-pyrazol-4-yl)phenyl)-2-(4-(1,1-difluoro-2-hydroxypropyl)phenyl)acetamide] | 46.7% | 56.2% | 
22 | CCC(F)(F)c1ccc(CC(=O)Nc2ccc(-c3nccnc3N[C@H](C)c3ccccc3)cc2)cc1 [Example 59, (R)-2-(4-(1,1-Difluoropropyl)phenyl)-N-(4-(3-((1-phenylethyl)amino)pyrazin-2-yl)phenyl)acetamide] | 58.6% | 79.7% | 
23 | CCC(F)(F)c1ccc(CC(=O)Nc2ccc(-c3ccncc3-c3ccc(Cl)cc3)cc2)cc1 [Example 46, N-(4-(3-(4-Chlorophenyl)pyridin-4-yl)phenyl)-2-(4-(1,1-difluoropropyl)phenyl)acetamide] | 70% | 77.1% | 
24 | CCC(F)(F)c1ccc(CC(=O)Nc2ccc(-c3nccnc3-c3ccc(F)cc3F)cc2)cc1 [Example 10, N-(4-(3-(2,4-Difluorophenyl)pyrazin-2-yl)phenyl)-2-(4-(1,1-difluoropropyl)phenyl)acetamide] | 78.2% | 83% | 0.05 to 0.1 µM
25 | CCC(F)(F)c1ccc(CC(=O)Nc2ccc(-c3cnccc3-c3ccc(Cl)cc3)cc2)cc1 [Example 35, N-(4-(4-(4-Chlorophenyl)pyridin-3-yl)phenyl)-2-(4-(1,1-difluoropropyl)phenyl)acetamide] | 72.8% | 73.3% | 0.1 to 0.5 µM

From US10344024B2, “Compounds as ROR gamma modulators” (Glenmark Pharmaceuticals S.A., priority 2015, dated 2019)
